Source: US10925876B2, “Methods for using triazolo-pyrazinyl soluble guanylate cyclase activators in fibrotic disorders” (Merck Sharp & Dohme Corp., priority 2016, dated 2021)

Experiments:
[1] = IV Cassette PK Assay in rats; format: in vivo; conditions: rat, male Wistar-Han rats, plasma, read-out: Cassette PK T1/2 (hr), Imidazo-Pyrazinyl Analog (converted)
Method: The results were obtained using the following the procedure:
Adult male Wistar-Han rats were fasted overnight and administered a cassette IV dose of mixture of several compounds via a previously implanted catheter in the femoral vein. Animals were allowed access to food 4 h post dose. Blood samples were collected into EDTA-containing tubes at the following time points: 0.03, 0.13, 0.25, 0.5, 1, 2, 4, 8 h post-dose. Blood samples were stored on ice until plasma was harvested by centrifugation. Plasma was transferred to a 96-well plate and stored at −20° C. until analysis. Concentrations of each compound in rat plasma were determined by LC-MS/MS following protein precipitation.

[2] = test system: Spontaneously hypertensive rats (SHR); assay: Acute Efficacy in Spontaneously Hypertensive Rats (SHR), telemetry blood pressure; format: in vivo, rat; conditions: single oral gavage
Procedure, shortened: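 Male SHR fitted with aortic telemetry transmitters and recovered 14 days; conscious blood pressure sampled 30 s every 10 min. Single oral gavage dose (vehicle 10% transcutol/20% Cremophor/70% water); hourly SBP change versus prior-day vehicle baseline, reported as maximum peak decrease.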

sGC α1/β1 heterodimer = target: T1, sGC α1/β1 heterodimer (Homo sapiens, UniProt Q02108+Q02153); assay: Cell-Based sGC Functional Assay (CASA Assay), cGMP generation in CHO-K1/sGC cells;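 also: reference Compound A is a published heme-dependent sGC activator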; conditions: maximum cGMP production of Compound A set to 100% activation, read-out: % Act. (percent activation relative to Compound A)
T1 construct: expressed in transfected cells
T1 sequence (Q02108 1-690): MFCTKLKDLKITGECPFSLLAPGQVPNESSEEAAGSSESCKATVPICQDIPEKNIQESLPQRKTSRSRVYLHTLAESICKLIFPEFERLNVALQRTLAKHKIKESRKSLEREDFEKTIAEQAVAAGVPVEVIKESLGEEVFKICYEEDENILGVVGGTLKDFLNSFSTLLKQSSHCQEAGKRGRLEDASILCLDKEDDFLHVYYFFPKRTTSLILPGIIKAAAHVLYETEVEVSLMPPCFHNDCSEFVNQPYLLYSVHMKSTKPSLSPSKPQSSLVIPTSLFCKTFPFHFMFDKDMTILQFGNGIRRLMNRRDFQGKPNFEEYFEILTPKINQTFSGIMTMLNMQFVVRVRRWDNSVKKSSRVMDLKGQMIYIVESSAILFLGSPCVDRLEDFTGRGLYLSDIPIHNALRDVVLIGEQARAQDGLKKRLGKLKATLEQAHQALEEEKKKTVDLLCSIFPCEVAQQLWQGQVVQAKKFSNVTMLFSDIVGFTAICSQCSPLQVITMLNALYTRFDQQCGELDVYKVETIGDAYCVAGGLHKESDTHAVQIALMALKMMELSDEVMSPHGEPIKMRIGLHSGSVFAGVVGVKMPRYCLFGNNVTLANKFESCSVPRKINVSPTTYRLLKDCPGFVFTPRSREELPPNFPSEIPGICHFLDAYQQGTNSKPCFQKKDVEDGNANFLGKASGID
T1 sequence (Q02153 1-619): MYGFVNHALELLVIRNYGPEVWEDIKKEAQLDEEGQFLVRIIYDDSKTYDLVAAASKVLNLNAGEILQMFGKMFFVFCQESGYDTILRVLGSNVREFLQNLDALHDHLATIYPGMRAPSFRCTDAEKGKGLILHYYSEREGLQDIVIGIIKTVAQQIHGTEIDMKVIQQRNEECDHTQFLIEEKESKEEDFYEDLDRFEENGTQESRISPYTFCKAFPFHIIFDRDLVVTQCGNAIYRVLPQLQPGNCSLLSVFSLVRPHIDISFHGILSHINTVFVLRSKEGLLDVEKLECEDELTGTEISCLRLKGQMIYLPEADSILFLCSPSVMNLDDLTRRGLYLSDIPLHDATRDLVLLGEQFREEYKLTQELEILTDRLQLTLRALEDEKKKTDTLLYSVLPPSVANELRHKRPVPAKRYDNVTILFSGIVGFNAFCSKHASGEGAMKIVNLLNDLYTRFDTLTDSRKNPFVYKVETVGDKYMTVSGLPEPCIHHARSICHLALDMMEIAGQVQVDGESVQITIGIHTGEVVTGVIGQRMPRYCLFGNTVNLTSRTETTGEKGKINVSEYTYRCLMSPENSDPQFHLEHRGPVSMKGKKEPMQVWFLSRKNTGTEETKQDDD
Procedure, shortened: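 Intracellular cGMP quantified by HTRF competition after 1 h, 37 °C compound exposure, with or without 1 μM DETA-NO, in stable CHO-K1/sGC α1/β1 cells (4×10^5/mL; buffer with 0.5 mM IBMX, 5 mM MgCl2, 10 mM HEPES, 0.05% BSA; 2.5% DMSO). Activation normalized to reference Compound A maximum; 4P fit.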

Molecule CC1(c2ccc(F)cn2)C(=O)Nc2nc(-c3cn4ccnc4c(CCC(F)(F)C(F)(F)F)n3)nc(N)c21 (stereo not shown) has a half-life [1] of 1.41 h.
Nc1nc(-c2cn3ccnc3c(CCCC(F)(F)F)n2)nc2c1C(c1ccc(C(F)F)cn1)(C1CC1)C(=O)N2 (stereo not shown) gave a half-life [1] of 2.12 h.
In the case of C[C@@]1(c2ccc(F)cc2)C(=O)Nc2nc(-c3cn4ncnc4c(CCC(F)(F)C(F)(F)F)n3)nc(O)c21 [Example 119A, (S)-5-(4-fluorophenyl)-4-hydroxy-5-methyl-2-(8-(3,3,4,4,4-pentafluorobutyl)-[1,2,4]triazolo[1,5-a]pyrazin-6-yl)-5,7-dihydro-6H-pyrrolo[2,3-d]pyrimidin-6-one], the “Maximum peak decrease of systolic blood pressure (SBP) in SHR, Cat.” value (“Maximum peak decrease” for short) ([2]; P.O. 1 mpk) is reported as “B (Category B=SBP in SHRs 20-40 mmHg)” and the Emax (sGC α1/β1 heterodimer) is reported as 124%.
With CC1(c2cncc(F)c2)C(=O)Nc2nc(-c3cn4ncnc4c(CCC(F)(F)C(F)(F)F)n3)nc(O)c21 (stereo not shown) [Example 125A, 5-(5-fluoropyridin-3-yl)-4-hydroxy-5-methyl-2-(8-(3,3,4,4,4-pentafluorobutyl)-[1,2,4]triazolo[1,5-a]pyrazin-6-yl)-5H-pyrrolo[2,3-d]pyrimidin-6(7H)-one] the “Maximum peak decrease” value ([2]; P.O. 3 mpk) was “A (Category A=SBP in SHRs <20 mmHg)” and the Emax (sGC α1/β1 heterodimer) was 87%.
In the case of C[C@@]1(c2ccc(F)cc2)C(=O)Nc2nc(-c3cn4ncnc4c(CCC(F)(F)F)n3)nc(N)c21 [Example 74A, (S)-4-amino-5-(4-fluorophenyl)-5-methyl-2-(8-(3,3,3-trifluoropropyl)-[1,2,4]triazolo[1,5-a]pyrazin-6-yl)-5,7-dihydro-6H-pyrrolo[2,3-d]pyrimidin-6-one], the “Maximum peak decrease” value ([2]; P.O. 1 mpk) is reported as “B (Category B=SBP in SHRs 20-40 mmHg)” and the Emax (sGC α1/β1 heterodimer) is reported as 110%.
In the case of CC1(c2ccc(Cl)cn2)C(=O)Nc2nc(-c3cn4ncnc4c(CCC(F)(F)F)n3)nc(N)c21 (stereo not shown) [Example 79A, 4-amino-5-(5-chloropyridin-2-yl)-5-methyl-2-(8-(3,3,3-trifluoropropyl)-[1,2,4]triazolo[1,5-a]pyrazin-6-yl)-5H-pyrrolo[2,3-d]pyrimidin-6(7H)-one], the “Maximum peak decrease” value ([2]; P.O. 1 mpk) is reported as “B (Category B=SBP in SHRs 20-40 mmHg)” and the Emax (sGC α1/β1 heterodimer) is reported as 152%.
With Nc1nc(-c2cn3ncnc3c(CCC(F)(F)C(F)(F)F)n2)nc2c1C(c1cncc(F)c1)(C1CC1)C(=O)N2 (stereo not shown) [Example 8B, 4-amino-5-cyclopropyl-5-(5-fluoropyridin-3-yl)-2-(8-(3,3,4,4,4-pentafluorobutyl)-[1,2,4]triazolo[1,5-a]pyrazin-6-yl)-5H-pyrrolo[2,3-d]pyrimidin-6(7H)-one] the “Maximum peak decrease” value ([2]; P.O. 3 mpk) was “B (Category B=SBP in SHRs 20-40 mmHg)” and the Emax (sGC α1/β1 heterodimer) was 177%.
For O=C1Nc2nc(-c3cn4ncnc4c(CCCC(F)(F)F)n3)nc(O)c2C1(c1ccc(Cl)cc1)C1CC1 (stereo not shown) [Example 140B, 5-(4-chlorophenyl)-5-cyclopropyl-4-hydroxy-2-(8-(4,4,4-trifluorobutyl)-[1,2,4]triazolo[1,5-a]pyrazin-6-yl)-5H-pyrrolo[2,3-d]pyrimidin-6(7H)-one], the “Maximum peak decrease” value ([2]; P.O. 1 mpk) was “A (Category A=SBP in SHRs <20 mmHg)” and the Emax (sGC α1/β1 heterodimer) was 150%.
With CCCCc1nc(-c2nc(N)c3c(n2)NC(=O)C3(c2nnc(C(F)(F)F)o2)C2CC2)cn2ncnc12 (stereo not shown) [Example 105A, 4-amino-2-(8-butyl-[1,2,4]triazolo[1,5-a]pyrazin-6-yl)-5-cyclopropyl-5-(5-(trifluoromethyl)-1,3,4-oxadiazol-2-yl)-5H-pyrrolo[2,3-d]pyrimidin-6(7H)-one] the “Maximum peak decrease” value ([2]; P.O. 0.3 mpk) was “B (Category B=SBP in SHRs 20-40 mmHg)” and the Emax (sGC α1/β1 heterodimer) was 176%.
In the case of CCCCc1nc(-c2nc(O)c3c(n2)NC(=O)C3(C)c2ccc(Cl)c(F)c2)cn2ncnc12 (stereo not shown) [Example 156B, 2-(8-butyl-[1,2,4]triazolo[1,5-a]pyrazin-6-yl)-5-(4-chloro-3-fluorophenyl)-4-hydroxy-5-methyl-5H-pyrrolo[2,3-d]pyrimidin-6(7H)-one], the “Maximum peak decrease” value ([2]; P.O. 0.3 mpk) is reported as “C (Category C=SBP in SHRs >40 mmHg)” and the Emax (sGC α1/β1 heterodimer) is reported as 102%.
For CC1(c2ccc(F)cn2)C(=O)Nc2nc(-c3cn4ncnc4c(CCC(F)(F)C(F)(F)F)n3)nc(N)c21 (stereo not shown) [Example 4B, 4-amino-5-(5-fluoropyridin-2-yl)-5-methyl-2-(8-(3,3,4,4,4-pentafluorobutyl)-[1,2,4]triazolo[1,5-a]pyrazin-6-yl)-5H-pyrrolo[2,3-d]pyrimidin-6(7H)-one], the “Maximum peak decrease” value ([2]; P.O. 0.3 mpk) was “C (Category C=SBP in SHRs >40 mmHg)” and the Emax (sGC α1/β1 heterodimer) was 157%.
In the case of CCCCc1nc(-c2nc(O)c3c(n2)NC(=O)C3(C)c2ccc(F)cn2)cn2ncnc12 (stereo not shown) [Example 155B, 2-(8-butyl-[1,2,4]triazolo[1,5-a]pyrazin-6-yl)-5-(5-fluoropyridin-2-yl)-4-hydroxy-5-methyl-5H-pyrrolo[2,3-d]pyrimidin-6(7H)-one], the “Maximum peak decrease” value ([2]; P.O. 1 mpk) is reported as “B (Category B=SBP in SHRs 20-40 mmHg)” and the Emax (sGC α1/β1 heterodimer) is reported as 159%.
In the case of Nc1nc(-c2cn3ncnc3c(CCCC(F)(F)F)n2)nc2c1C(c1nnc(C(F)(F)F)o1)(C1CC1)C(=O)N2 (stereo not shown) [Example 106A, 4-amino-5-cyclopropyl-2-(8-(4,4,4-trifluorobutyl)-[1,2,4]triazolo[1,5-a]pyrazin-6-yl)-5-(5-(trifluoromethyl)-1,3,4-oxadiazol-2-yl)-5H-pyrrolo[2,3-d]pyrimidin-6(7H)-one], the “Maximum peak decrease” value ([2]; P.O. 0.3 mpk) is reported as “C (Category C=SBP in SHRs >40 mmHg)” and the Emax (sGC α1/β1 heterodimer) is reported as 95%.
With CC1(c2ccc(Cl)cc2)C(=O)Nc2nc(-c3cn4ncnc4c(CCC(F)(F)F)n3)nc(O)c21 (stereo not shown) [Example 152A, 5-(4-chlorophenyl)-4-hydroxy-5-methyl-2-(8-(3,3,3-trifluoropropyl)-[1,2,4]triazolo[1,5-a]pyrazin-6-yl)-5H-pyrrolo[2,3-d]pyrimidin-6(7H)-one] the “Maximum peak decrease” value ([2]; P.O. 3 mpk) was “B (Category B=SBP in SHRs 20-40 mmHg)” and the Emax (sGC α1/β1 heterodimer) was 70%.
For CC1(c2cn(C3CC3)nn2)C(=O)Nc2nc(-c3cn4ncnc4c(CCC(F)(F)C(F)(F)F)n3)nc(N)c21 (stereo not shown) [Example 95B, 4-Amino-5-(1-cyclopropyl-1H-1,2,3-triazol-4-yl)-5-methyl-2-(8-(3,3,4,4,4-pentafluorobutyl)-[1,2,4]triazolo[1,5-a]pyrazin-6-yl)-5H-pyrrolo[2,3-d]pyrimidin-6(7H)-one], the “Maximum peak decrease” value ([2]; P.O. 0.3 mpk) was “C (Category C=SBP in SHRs >40 mmHg)” and the Emax (sGC α1/β1 heterodimer) was 74%.
